{"source": "patent US12064407B2", "about": "(priority 2017, dated 2024)", "key": {"CaV1.2 CCAT": {"system": "CaV1.2 CCAT", "conditions": "2.5 mM EGTA; 65 mM KCI; 100 μM glutamate; cited from earlier work"}, "ERVK CTXLP [1]": {"system": "ERVK CTXLP", "conditions": "ReNcell CX neurospheres, 24 hours, 1 ng/ml TNFα; for TNFα-induced CTXLP expression in human neurospheres: 0.5 μM GA", "procedure": "(§1) The ReNcell CX neuroprogenitor cell line was grown in suspension to produce human neurospheres (approximately 0.5 mm diameter). Neurospheres were treated for 24 hours in neurobasal media alone, or with or without 1 ng/ml TNFα and/or 0.5 μM gambogic acid (GA). Cells were collected, protein extracted, and western blot performed to measure the expression of soluble (standard lysis) and insoluble (RIPA lysis) proteins for ERVK CTXLP, CaV2.2 C-terminal calcium channel-associated transcriptional regulator (CaV2.2 CCAT) and NOGO-A, as compared to β-actin loading control."}, "CTXLP": {"system": "CTXLP", "assay": "Endogenous CTXLP in SVGA astrocytes treated with gambogic acid", "type": "cell-based, human", "conditions": "SVGA cells, gambogic acid 0.25 and 0.5 μM", "experimental": "FIG. 57 depicts that endogenous levels of CTXLP in human astrocytes can be depleted in the presence of gambogic acid. Human astrocytic cell line SVGA were treated with increasing doses of gambogic acid in the low micromolar range (0.25 and 0.5 μM)."}, "NOGO-A [2]": {"system": "NOGO-A", "conditions": "ReNcell CX neurospheres, 24 hours, 1 ng/ml TNFα; for TNFα-induced NOGO-A expression in human neurospheres: 0.5 μM GA", "procedure": "as §1"}, "NOGO-A [3]": {"system": "NOGO-A", "conditions": "24 hours, GA 0.1, 0.25, 1 and 2.5 μM", "procedure": "The ERVK-expressing NCCIT teratocarcinoma cell line was grown in a monolayer in RMPI 1640 media supplemented with FetalGro. Cells were treated for 24 hours with increasing doses of gambogic acid (GA, 0.1, 0.25, 1 and 2.5 μM). Cells were collected, protein extracted, and western blot performed to measure the expression of ERVK CTXLP, CaV2.2 C-terminal calcium channel-associated transcriptional regulator (CaV2.2 CCAT) and NOGO-A, as compared to β-actin loading control."}, "ERVK CTXLP [4]": {"system": "ERVK CTXLP", "conditions": "ReNcell-derived neurons, 24 hours, n=1", "procedure": "ReNcell-derived neurons were treated with increasing doses of pro-inflammatory cytokines TNFα or LIGHT for 24 hours."}, "[5]": {"system": "interferon response elements (ISREs) within the ERVK promoter (5′ LTR)", "type": "binding, human"}, "NOGO-A [6]": {"biological_target": "T1, NOGO-A (Homo sapiens, UniProt Q9NQC3)", "T1 construct": "host or cells: ALS patients (clinical trials cited from the literature)", "T1 sequence (Q9NQC3 1-1192)": "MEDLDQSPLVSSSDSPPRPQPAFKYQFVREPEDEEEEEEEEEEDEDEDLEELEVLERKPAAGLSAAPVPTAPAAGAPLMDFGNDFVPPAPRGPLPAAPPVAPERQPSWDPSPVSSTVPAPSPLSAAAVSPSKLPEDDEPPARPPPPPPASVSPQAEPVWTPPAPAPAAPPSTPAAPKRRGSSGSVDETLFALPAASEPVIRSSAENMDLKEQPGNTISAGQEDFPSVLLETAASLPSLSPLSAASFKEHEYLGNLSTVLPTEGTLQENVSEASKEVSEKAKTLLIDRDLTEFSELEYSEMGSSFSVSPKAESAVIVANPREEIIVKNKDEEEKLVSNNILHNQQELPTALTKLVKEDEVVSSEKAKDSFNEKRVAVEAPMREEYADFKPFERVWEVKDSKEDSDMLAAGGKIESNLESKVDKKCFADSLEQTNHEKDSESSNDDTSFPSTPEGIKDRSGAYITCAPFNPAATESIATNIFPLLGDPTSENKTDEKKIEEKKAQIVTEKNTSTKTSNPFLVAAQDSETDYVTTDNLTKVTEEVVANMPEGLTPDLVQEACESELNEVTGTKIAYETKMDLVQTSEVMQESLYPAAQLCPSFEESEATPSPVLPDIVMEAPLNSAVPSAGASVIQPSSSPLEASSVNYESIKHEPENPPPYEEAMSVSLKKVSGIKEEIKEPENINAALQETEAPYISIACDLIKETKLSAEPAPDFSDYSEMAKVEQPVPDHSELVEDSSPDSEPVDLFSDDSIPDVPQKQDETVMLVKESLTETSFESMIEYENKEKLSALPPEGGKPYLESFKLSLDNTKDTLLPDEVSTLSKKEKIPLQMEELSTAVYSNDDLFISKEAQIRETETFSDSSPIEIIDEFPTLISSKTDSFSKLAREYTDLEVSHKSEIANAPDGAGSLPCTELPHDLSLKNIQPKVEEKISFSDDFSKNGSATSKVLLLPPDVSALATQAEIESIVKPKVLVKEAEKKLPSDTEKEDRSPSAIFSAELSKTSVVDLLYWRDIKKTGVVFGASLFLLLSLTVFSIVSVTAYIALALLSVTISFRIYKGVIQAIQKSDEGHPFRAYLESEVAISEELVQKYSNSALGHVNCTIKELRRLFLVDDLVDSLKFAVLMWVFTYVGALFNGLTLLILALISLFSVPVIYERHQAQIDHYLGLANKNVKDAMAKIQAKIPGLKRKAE", "conditions": "patients with ALS, intravenous infusions; cited from earlier work"}, "[7]": {"system": "CaV2.2 calcium channel-associated transcription regulator (CCAT)", "type": "cell-based, human"}, "[8]": {"system": "NF-κB p65 and p50 proteins", "type": "cell-based, human"}, "NF-κB p65 [9]": {"system": "NF-κB p65", "type": "cell-based"}, "IRF7": {"system": "IRF7", "type": "cell-based"}, "NF-κB p65 [10]": {"system": "NF-κB p65", "type": "cell-based", "remark": "listed apart in the source"}}, "note": "Like-named read-outs stand apart in the source and are kept apart here."}
{"molecule": "O=C(O)CN(CCOCCOCCN(CC(=O)O)CC(=O)O)CC(=O)O", "note": "[EGTA]", "values": [{"measurement": "CaV1.2 CCAT nuclear localization / nuclear CCAT levels in neurons", "setting": "CaV1.2 CCAT", "result": "promote"}]}
{"molecule": "CC(C)=CCC[C@]1(C)C=Cc2c(O)c3c(c(CC=C(C)C)c2O1)O[C@]12C(=C[C@@H]4C[C@H]1C(C)(C)O[C@@]2(C/C=C(/C)C(=O)O)C4=O)C3=O", "note": "[Gambogic acid, gambogic acid]", "values": [{"measurement": "TNFα-induced CTXLP expression in human neurospheres", "setting": "ERVK CTXLP [1]", "result": "blocks"}, {"measurement": "TNFα-induced CTXLP expression in human neurospheres", "setting": "ERVK CTXLP [1]; listed as gambogic acid", "result": "reduce inducible CTXLP expression"}, {"measurement": "endogenous levels of CTXLP in human astrocytes", "setting": "CTXLP", "result": "depleted"}, {"measurement": "TNFα-induced NOGO-A expression in human neurospheres", "setting": "NOGO-A [2]; listed as GA", "result": "blocked"}, {"measurement": "TNFα-induced NOGO-A expression in human neurospheres", "setting": "NOGO-A [2]; listed as gambogic acid", "result": "ameliorate"}, {"measurement": "NOGO-A expression in NCCIT cells", "setting": "NOGO-A [3]", "result": "potent inhibitor of Nogo-A"}, {"measurement": "NOGO-A expression in NCCIT cells", "setting": "NOGO-A [3]; listed as GA", "result": "dose-dependently reduces"}]}
{"molecule": "[Cl-].[K+]", "note": "[KCI]", "values": [{"measurement": "CaV1.2 CCAT nuclear localization / nuclear CCAT levels in neurons", "setting": "CaV1.2 CCAT", "result": "decreased nuclear CCAT levels"}]}
{"molecule": "[Ca+2].[Cl-].[Cl-]", "note": "[calcium chloride]", "values": [{"measurement": "caspase-3 expression in CTXLP-treated SVGA cells in the presence of excess calcium", "setting": "SVGA cells", "result": "blocked"}]}
{"molecule": "N[C@@H](CCC(=O)O)C(=O)O", "note": "[glutamate]", "values": [{"measurement": "CaV1.2 CCAT nuclear localization / nuclear CCAT levels in neurons", "setting": "CaV1.2 CCAT", "result": "decreased nuclear CCAT levels"}]}
{"molecule": "TNFα", "values": [{"measurement": "cytokine dose giving optimal enhancement of CTXLP expression (90 kDa form)", "setting": "ERVK CTXLP [4]", "result": 1, "unit": "ng/mL"}, {"measurement": "CTXLP expression in neurospheres on TNFα", "setting": "ERVK CTXLP [1]", "result": "enhances"}, {"measurement": "NOGO-A expression in neurospheres on TNFα", "setting": "NOGO-A [2]", "result": "enhances"}, {"measurement": "CTXLP chromatin binding on cytokine stimulation", "setting": "[5]", "result": "Notable increase"}]}
{"molecule": "Ozanezumab: human anti-Nogo-A antibody from GlaxoSmithKline (antibody, chains of the INN, looked up, V domains shown) VH: QVQLVQSGAEVKKPGASVKVSCKASGYTFTSYWMHWVRQAPGQGLEWIGNINPSNGGTNYNEKFKSKATMTRDTSTSTAYMELSSLRSEDTAVYYCELMQGYWGQGTLVTVSS VL: DIVMTQSPLSNPVTLGQPVSISCRSSKSLLYKDGKTYLNWFLQRPGQSPQLLIYLMSTRASGVPDRFSGGGSGTDFTLKISRVEAEDVGVYYCQQLVEYPLTFGQGTKLEIK", "values": [{"measurement": "outcome of Phase II clinical ALS trials", "setting": "NOGO-A [6]", "result": "negative results"}]}
{"molecule": "LIGHT: lymphotoxin-like inducible member of the TNF superfamily protein, pro-inflammatory cytokine (protein, UniProt O43557 83-240, looked up) Tumor necrosis factor ligand …: LIQERRSHEVNPAAHLTGANSSLTGSGGPLLWETQLGLAFLRGLSYHDGALVVTKAGYYYIYSKVQLGGVGCPLGLASTITHGLYKRTPRYPEELELLVSQQSPCGRATSSSRVWWDSSFLGGVVHLEAGEKVVVRVLDERLVRLRDGTRSYFGAFMV", "values": [{"measurement": "cytokine dose giving optimal enhancement of CTXLP expression (90 kDa form)", "setting": "ERVK CTXLP [4]", "result": 10, "unit": "ng/mL"}]}
{"molecule": "ERVK SU: ERVK envelope surface unit protein devoid of the CTXLP domain (SEQ ID NO: 3) (protein, Endogenous retrovirus K (from homo sapiens)) MNPSEMQRKAPPRRRRHRNRAPLTHKMNKMVTSEEQMKLPSTKKAEPPTWAQLKKLTQLATKYLENTKVTQTPESMLLAALMIVSMVVSLPMPAGAAAANYTYWAYVPFPPLIRAVTWMDNPIEIYVNDSVWVPGPTDDCCPAKPEEEGMMINISIGYRYPPICLGRAPGCLMPAVQNWLVEVPTVSPISRFTYHMVSGMSLRPRVNYLQDFSYQRSLKFRPKGKPCPKEIPKESKNTEVLVWEECVANSAVILQNNEFGTLIDWAPRGQFYHNCSGQTQSCPSAQVSPAVDSDLTESLDKHKHKKLQSFYPWEWGEKGISTARPKIISPVSGPEHPELWRLTVASHHIRIWSGNQTLETRDRKPFYTIDLNSSLTVPLQSCVKPPYMLVVGNIVIKPDSQTITCENCRLLTCIDSTFNWQHRILLVRAREGVWIPVSMDRPWEASPSVHILTEVLKGVLNRSKR", "values": [{"measurement": "CaV2.2 CCAT (75 kDa) expression in SVGA cells", "setting": "[7]", "result": "not"}, {"measurement": "continued replication / cell density at later time points", "setting": "SVGA cells", "result": "able to continue to replicate"}, {"measurement": "NF-κB p65 and p50 protein expression", "setting": "[8]", "result": "not"}, {"measurement": "NF-κB p65 protein expression", "setting": "NF-κB p65 [9]", "result": "unable"}, {"measurement": "mRNA expression of IRF7", "setting": "IRF7", "result": "neither protein was able to trigger an upregulation"}, {"measurement": "mRNA expression of NF-κB p65", "setting": "NF-κB p65 [10]", "result": "marked increase"}]}
